Experimental data as given in patent US11911450B2, “Method for managing pain” (UNIVERSITY OF MIAMI, priority 2017, dated 2024).

Key:
[1] = morphine dose vs paw withdrawal latency; format: in vivo, mouse; conditions: approximately 30 minutes after intraperitoneal dosing; 10, 30, and 60 mg/kg
Procedure: Behavioral tests: Thermal and mechanical sensitivity was measured by Hargreaves test and von Frey filament threshold calculations respectively. See, e.g., Boyce-Rustay et al. Methods Mol Biol. 2010; 617:41-55; Hargreaves et al., Pain. 1988; 32(1):77-88; and Chaplan et al., J Neurosci Methods. 1994; 53(1):55-63. Tests were performed in a quiet room with daylight-like illumination. Animals were habituated to the behavioral room and apparatus for at least 60 minutes for 1 week before a blinded investigator collected data. The thermal sensitivity test was performed using an IITC Plantar Analgesia Meter apparatus (IITC Life sciences, Woodland Hills, CA) with a plastic box placed on a glass plate of constant temperature (30° C.). The mouse plantar surface was exposed to a beam of radiant heat to induced paw withdrawal. Baseline latencies were adjusted to 5-9 sec with a maximum of 20 sec as cutoff to prevent potential injury. The latency time in seconds from the onset of the intense light beam to paw withdrawal was defined as the withdrawal latency of the paw. […] The mouse hind paw was pressed with one of a series of von Frey filaments with logarithmically incrementing stiffness (Stoelting Co, Wood Dale, IL) presented perpendicular to the plantar surface of each hind paw for 1-2 seconds, the 50% threshold was determined using the Up- and Down method.

[2] = test system: RYR-dependent calcium release; assay: 5HT-induced RYR-dependent cytoplasmic calcium release in NBL cells (Fura2 imaging); format: cell-based, human; conditions: for 5HT-induced cytoplasmic calcium release, effect of ryanodine: 50 μM 5HT
Procedure: Pharmacodynamics—Bioassay of Calcium Release: Fifteen mm glass coverslips (cat #72228 Electron Microscopy Sciences, Hatfield, PA) were coated with poly-D-Lysine (Sigma) followed by Laminin and 1×10^5 cells were seeded on each coverslip. Twenty-four hrs later, cells were transfected with AAV2-ITR, AAV2-V5-Car10, or AAV2-V5-CA10 vectors as previously described. In embodiments wherein AAV2 is not employed, other expression vectors (including viral vectors) are used. Fura-2AM (cat #F1221 ThermoFisher scientific, Waltham, MA) was dissolved in DMSO (50 μg in 50 μl) and 1% pluronic acid-127 (cat #P2443 Sigma, St Louis, MO) as the stock solution. Forty eight hrs after seeding, cells were loaded with 2 μM Fura-2AM dye for 45 min at room temperature in the dark in a standard Ca+2 buffer solution containing: 125 mM NaCl, 2 mM MgCl, 4.5 mM KCl, 10 glucose, 20 mM HEPES, 2 mM CaCl2, pH 7.4.25. Following dye loading, coverslips were washed with Ca^+2 buffer solution. For imaging and ATP stimulation experiments, coverslips were placed in a recording chamber (cat #QR-42LP Warner instruments Hamden, CT) on a Leica DMI6000B microscope, and perfused at room temperature (˜22° C.) with Ca^+2 free buffer solution containing: 125 mM NaCl, 4 mM MgCl, 4.5 mM KCl, 10 mM glucose, 20 mM HEPES, pH 7.4. For the ratiometric imaging of Fura-2AM, the excitation light was filtered through an ultra high-speed wavelength switcher to provide wavelengths of 340 and 384 nm and capture by a high-speed digital camera (Leica DFC365FX). Activation of ITPR1 channels was achieved via application of 1 μM ATP (Sigma, St Louis, MO). Data acquisition and processing was made using the LAXS software. Regions of interest over the field of view were selected and the mean pixels intensity at each frame was measured. Data was plotted as ratio fluorescence intensity versus time and subsequently converted to a relative scale.
It was also determined that 5HT-induced RYR-dependent calcium release in NBL cells is inhibited by ryanodine. […]

ITPR1 [3] = target: T1, ITPR1 (Homo sapiens, UniProt Q14643); assay: NGF-induced intracellular calcium release in HEK293 cells; format: cell-based; set-up: endogenous in cells; host or cells: HEK293 (ATCC CRL-1573); conditions: data not shown
ITPR1 [4] = target: T1, ITPR1; assay: NGF-induced intracellular calcium release / ITPR1 activation in NBL cells; format: cell-based; set-up: endogenous in cells; conditions: NBL cells
[5] = test system: ITPR1-mediated cytoplasmic calcium release; assay: ATP-induced cytoplasmic calcium release in HEK293 cells (Fura-2 imaging); format: cell-based, human
Procedure: Cell culture and transfections: Human neuronal-derived (e.g., NBL), human non-neuronal derived (e.g., HEK293) cells, or dispersed rodent primary DRG cells can be used. HEK293 cells (cat #CRL-1573 ATCC Manassas, VA) were cultured in Dulbecco's modified Eagle's medium (DMEM-Glutamax cat #0566; Invitrogen) supplemented with 10% fetal bovine serum, FBS (cat #16140 ThermoFisher scientific, Waltham, MA) and 1% penicillin/streptomycin (cat #15140 ThermoFisher scientific, Waltham, MA). Cells were seeded in six-well plates at density of 1.0×10^5 cells per well. […]
Pharmacodynamics—Bioassay of Calcium Release: Fifteen mm glass coverslips (cat #72228 Electron Microscopy Sciences, Hatfield, PA) were coated with poly-D-Lysine (Sigma) followed by Laminin and 1×10^5 cells were seeded on each coverslip. […] Regions of interest over the field of view were selected and the mean pixels intensity at each frame was measured. Data was plotted as ratio fluorescence intensity versus time and subsequently converted to a relative scale.
To further examine whether FLAG-CA8-204 (data not shown), V5-Car10 and V5-CA10 overexpression can inhibit ATP-induced calcium release, HEK293 cells were infected with each if these constructs and real-time intracellular calcium concentrations at baseline and in response to ATP stimulation were measured (FIG. 2). […]

T1 sequence (Q14643 whole entry): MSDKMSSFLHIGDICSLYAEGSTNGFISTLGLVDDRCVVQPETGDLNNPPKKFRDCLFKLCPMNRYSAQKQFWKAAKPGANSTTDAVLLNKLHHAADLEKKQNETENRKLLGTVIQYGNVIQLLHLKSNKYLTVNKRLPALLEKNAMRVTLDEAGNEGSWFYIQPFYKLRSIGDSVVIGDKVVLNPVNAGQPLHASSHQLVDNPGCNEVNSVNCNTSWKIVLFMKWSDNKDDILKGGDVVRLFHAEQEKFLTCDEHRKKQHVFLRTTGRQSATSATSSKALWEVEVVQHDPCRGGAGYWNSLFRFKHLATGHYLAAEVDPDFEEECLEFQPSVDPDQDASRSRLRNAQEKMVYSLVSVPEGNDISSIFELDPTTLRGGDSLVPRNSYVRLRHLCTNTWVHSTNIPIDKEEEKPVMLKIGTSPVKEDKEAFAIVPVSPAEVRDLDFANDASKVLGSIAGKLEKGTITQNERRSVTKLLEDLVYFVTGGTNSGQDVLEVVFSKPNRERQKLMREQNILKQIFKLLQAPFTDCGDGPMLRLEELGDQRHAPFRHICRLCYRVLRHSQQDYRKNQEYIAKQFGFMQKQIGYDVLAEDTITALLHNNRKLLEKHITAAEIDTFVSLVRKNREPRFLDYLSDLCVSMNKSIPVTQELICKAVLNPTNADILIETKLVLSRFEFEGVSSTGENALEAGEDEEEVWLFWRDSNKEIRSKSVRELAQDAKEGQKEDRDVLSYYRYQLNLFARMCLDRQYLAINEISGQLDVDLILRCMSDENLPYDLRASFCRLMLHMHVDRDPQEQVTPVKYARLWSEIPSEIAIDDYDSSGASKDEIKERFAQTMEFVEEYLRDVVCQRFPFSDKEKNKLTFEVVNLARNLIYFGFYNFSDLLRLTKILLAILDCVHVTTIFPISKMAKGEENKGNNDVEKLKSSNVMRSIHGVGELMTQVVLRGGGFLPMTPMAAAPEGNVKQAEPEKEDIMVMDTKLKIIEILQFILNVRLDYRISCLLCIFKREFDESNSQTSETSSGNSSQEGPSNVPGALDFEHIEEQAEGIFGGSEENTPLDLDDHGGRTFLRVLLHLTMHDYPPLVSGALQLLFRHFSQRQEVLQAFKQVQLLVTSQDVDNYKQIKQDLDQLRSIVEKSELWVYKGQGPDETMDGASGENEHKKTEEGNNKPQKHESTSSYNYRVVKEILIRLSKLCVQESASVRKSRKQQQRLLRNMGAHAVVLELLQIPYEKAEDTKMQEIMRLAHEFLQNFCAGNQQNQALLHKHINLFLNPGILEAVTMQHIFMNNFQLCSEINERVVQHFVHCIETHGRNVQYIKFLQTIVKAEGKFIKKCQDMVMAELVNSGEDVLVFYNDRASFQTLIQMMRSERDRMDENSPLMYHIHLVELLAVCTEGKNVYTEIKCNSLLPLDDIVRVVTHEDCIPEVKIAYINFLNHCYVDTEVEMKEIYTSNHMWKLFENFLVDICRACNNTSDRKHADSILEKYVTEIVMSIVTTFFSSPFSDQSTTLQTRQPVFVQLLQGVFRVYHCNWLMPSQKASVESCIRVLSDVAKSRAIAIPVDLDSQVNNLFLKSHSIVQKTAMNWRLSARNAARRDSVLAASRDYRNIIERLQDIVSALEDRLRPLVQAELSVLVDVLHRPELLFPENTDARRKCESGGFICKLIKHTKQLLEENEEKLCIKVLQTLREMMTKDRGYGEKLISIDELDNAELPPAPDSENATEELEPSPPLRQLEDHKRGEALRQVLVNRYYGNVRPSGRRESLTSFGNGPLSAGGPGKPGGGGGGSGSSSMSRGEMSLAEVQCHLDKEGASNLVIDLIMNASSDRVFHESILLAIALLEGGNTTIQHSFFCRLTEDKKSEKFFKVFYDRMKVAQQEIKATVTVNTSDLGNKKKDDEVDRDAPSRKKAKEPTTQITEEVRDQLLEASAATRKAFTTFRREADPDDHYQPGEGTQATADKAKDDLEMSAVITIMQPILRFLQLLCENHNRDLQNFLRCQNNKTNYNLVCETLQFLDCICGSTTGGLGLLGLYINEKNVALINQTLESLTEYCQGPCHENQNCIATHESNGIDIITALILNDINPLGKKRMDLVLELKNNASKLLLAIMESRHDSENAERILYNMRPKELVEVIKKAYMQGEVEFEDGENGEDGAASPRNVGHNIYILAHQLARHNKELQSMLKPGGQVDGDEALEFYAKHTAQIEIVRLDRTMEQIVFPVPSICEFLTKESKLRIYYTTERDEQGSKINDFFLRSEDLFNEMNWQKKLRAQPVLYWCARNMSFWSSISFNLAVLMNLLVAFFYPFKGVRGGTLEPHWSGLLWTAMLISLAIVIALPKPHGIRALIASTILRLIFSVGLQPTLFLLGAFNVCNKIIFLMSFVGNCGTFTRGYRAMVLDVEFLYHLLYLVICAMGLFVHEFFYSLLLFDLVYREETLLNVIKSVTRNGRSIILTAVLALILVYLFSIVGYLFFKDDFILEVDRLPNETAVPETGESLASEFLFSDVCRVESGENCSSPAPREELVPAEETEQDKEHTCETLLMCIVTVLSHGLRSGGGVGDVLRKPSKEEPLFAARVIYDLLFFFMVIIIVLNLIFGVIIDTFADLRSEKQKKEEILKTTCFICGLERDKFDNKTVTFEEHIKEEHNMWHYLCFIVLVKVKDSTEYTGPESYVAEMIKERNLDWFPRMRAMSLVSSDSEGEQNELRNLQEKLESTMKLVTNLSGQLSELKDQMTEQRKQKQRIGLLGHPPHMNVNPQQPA

**Q.** Which paw withdrawal latency [1] does the source give for `CN1CC[C@]23c4c5ccc(O)c4O[C@H]2[C@@H](O)C=C[C@H]3[C@H]1C5` [morphine, reference compound] here?
**A.** Elevations were significant when compared with saline

**Q.** With `NCCc1c[nH]c2ccc(O)cc12` [5HT, reference compound] as the compound, how does the “effect of 5HT on calcium release” value [2] read?
**A.** stimulates calcium release

**Q.** Which “effect of NGF on intracellular calcium release” value (ITPR1 [3]) does the source give for “NGF: nerve growth factor, stimulant of calcium release” here?
**A.** increased intracellular calcium release

**Q.** Which “5HT-induced cytoplasmic calcium release, effect of ryanodine” value ([2]; 10 nM ryanodine) does the source give for ryanodine [reference compound] here?
**A.** nearly completely inhibited

**Q.** What about the “5HT-induced cytoplasmic calcium release, effect of ryanodine” value ([2]; dose-dependent, vs vehicle) of the same compound?
**A.** significantly inhibited

**Q.** For `NCCOB(c1ccccc1)c1ccccc1` [2-APB, reference compound], which “NGF-induced intracellular calcium release” value (ITPR1 [4]) is on record?
**A.** nearly completely inhibited

**Q.** For `Nc1ncnc2c1ncn2[C@@H]1O[C@H](COP(=O)(O)OP(=O)(O)OP(=O)(O)O)[C@@H](O)[C@H]1O` [ATP, reference compound], which “effect of ATP on cytosolic free calcium” value [5] is on record?
**A.** stimulated calcium release and an increase in cytosolic free calcium levels in a dose-dependent manner
